# Laboratory results taken from patent US8263591B2, “Bicyclic amides for enhancing glutamatergic synaptic responses” (Cortex Pharmaceuticals, Inc., priority 2007, dated 2012).
# How the values were obtained:
# AMPA receptor = test: In vivo electrophysiology: amplitude of field EPSP in dentate gyrus of anesthetized animals
# Experimental: (§1) The electrophysiological effects of the invention compounds were tested in vivo in anesthetized animals according to the following procedures. Animals are maintained under anesthesia by phenobarbital administered using a Hamilton syringe pump. Stimulating and recording electrodes are inserted into the perforant path and dentate gyrus of the hippocampus, respectively. Once electrodes are implanted, a stable baseline of evoked responses are elicited using single monophasic pulses (100 μs pulse duration) delivered at 3/min to the stimulating electrode. Field EPSPs are monitored until a stable baseline is achieved (about 20-30 min), after which a solution of test compound is injected intraperitoneally and evoked field potentials are recorded. Evoked potentials were recorded for approximately 2 h following drug administration or until the amplitude of the field EPSP returns to baseline. In the latter instance, it is common that an iv administration is also carried out with an appropriate dose of the same test compound. Invention compounds were assayed in the in vivo electrophysiology assay described above and data for representative test compounds is shown in column 1 in Table 1.
# The electrophysiological effects of invention compounds were tested in vivo in anesthetized animals according to the following procedures.
# as §1, with “Animals” for “The electrophysiological effects of the invention compounds were tested in vivo in anesthetized animals according to the following procedures. Animals”, “are” for “were”, “compound.” for “compound. Invention compounds were assayed in the in vivo electrophysiology assay described above and data for representative test compounds is shown in column 1 in Table 1.”
# Male CD1 mice = test: Inhibition of d-Amphetamine stimulated locomotion; format: in vivo; conditions: 18 mpk i.p., d-amphetamine 2 mg/kg
# Experimental: The ability of the invention compounds to inhibit d-Amphetamine stimulated locomotor activity was assayed according to the following procedure. Male CD1 mice, 25-30 gm body o weight, were brought into the experimental room and allowed at least 30 min of acclamation.
# Each mouse was placed into the testing enclosure with an infrared beam array that automatically monitors the animal's activity. Mice were habituated in the testing enclosure for 20 min, and then returned to their home cage. Mice were dosed intraperitoneally with test compound in appropriate vehicle 5 minutes before d-Amphetamine injection (2 mpk). Ten minutes after d-Amphetamine injection, mice were tested for locomotor activity for a total of 15 minutes. The data was computer collected and expressed as “arbitrary movement units.” All data were analyzed by comparing the groups treated with the test compound to the vehicle control group. The data shown is the % inhibition of hyperactivity induced by acute administration of 2 mg/kg d-amphetamine in mice. […]
# Male CD1 mice, 25-30 gm body weight, were brought into the experimental room and allowed at least 30 min of acclamation. […] The data was computer collected and expressed as “arbitrary movement units.” All data were analyzed by comparing the groups treated with the test compound to the vehicle control group.
melting point,SMILES,% increase in the amplitude of the field EPSP in the dentate gyrus of rat (AMPA receptor; 10 mpk i.p.),% Inhibition of d-amphetamine stimulated locomotion (Male CD1 mice),% increase in the amplitude of the field EPSP in the dentate gyrus of rat (AMPA receptor; dosed i.v.)
143 to 144 °C,O=C(c1ccc2nonc2c1)N1C2CCC1CC2,–,–,–
–,"O=C(c1ccc2nonc2c1)N1C2C=C(F)CC1CC2 (stereo not drawn) [Example 4, [2,1,3]-benzoxadiazol-5-yl(3-fluoro-8-azabicyclo[3.2.1]oct-2-en-8-yl)methanone]",25%,–,–
106 to 108 °C,"O=C(c1ccc2nonc2c1)N1CC2C=CC1C2 (stereo not drawn) [Example 11, 2-Azabicyclo[2.2.1]hept-5-en-2-yl([2,1,3]-benzoxadiazol-5-yl)methanone]",–,–,–
169 to 171 °C,O=C(c1ccc2nonc2c1)N1C2CCC1CC(O)C2 (stereo not drawn) [5],–,–,–
92 to 93 °C,"O=C(c1ccc2nonc2c1)N1CC2CCC1C2 (stereo not drawn) [Example 7, 2-Azabicyclo[2.2.1]hept-2-yl([2,1,3]-benzoxadiazol-5-yl)methanone]",–,–,20%^3
138 to 139 °C,"O=C(c1ccc2nonc2c1)N1CC2CCC1CC2 [Example 9, 2-Azabicyclo[2.2.2]oct-2-yl([2,1,3]-benzoxadiazol-5-yl)methanone]",–,–,–
102 to 104 °C,"O=C(c1ccc2nonc2c1)N1CC2CC1CO2 (stereo not drawn) [Example 10, [2,1,3]-benzoxadiazol-5-yl(2-oxa-5azabicyclo[2.2.1]hept-5-yl)methanone]",–,–,–
176 to 177 °C,O=C(c1ccc2nonc2c1)N1C2CCC1CC(O)C2 (stereo not drawn) [6],–,–,–
156 to 157 °C,"O=C(c1ccc2nonc2c1)N1CC2CC1C(Cl)C2Cl (stereo not drawn) [Example 14, [2,1,3]-Benzoxadiazol-5-yl(5,6-dichloro-2-azabicyclo[2.2.1]hept-2-yl)methanone]",–,–,–

SMILES,melting point,% increase in the amplitude of the field EPSP in the dentate gyrus of rat (AMPA receptor; 10 mpk i.p.),% Inhibition of d-amphetamine stimulated locomotion (Male CD1 mice),% increase in the amplitude of the field EPSP in the dentate gyrus of rat (AMPA receptor; dosed i.v.)
"O=C1CC2CCC(C1)N2C(=O)c1ccc2nonc2c1 [Example 2, 8-([2,1,3]-Benzoxadiazol-5-ylcarbonyl)-8-azabicyclo[3.2.1]octan-3-one]",164 to 166 °C,16%,40%,–
"O=C(c1ccc2nonc2c1)N1C2CCCC1CC2 [Example 1, 8-Azabicyclo[3.2.1]oct-8-yl([2,1,3]-benzoxadiazol-5-yl)methanone]",128 to 130 °C,22%,69%,–
"O=C(c1ccc2nonc2c1)N1C2CCC1CC(F)(F)C2 [Example 3, [2,1,3]-Benzoxadiazol-5-yl(3,3-difluoro-8-azabicyclo[3.2.1]oct-8-yl)methanone]",165 to 166 °C,8%,–,–
